Laboratory results from US20040137022A1, “Manganese compositions for treating skin vascular tissue and combating skin pallor” (SOCIETE L'OREAL S.A., priority 2000, published 2004).

System: endothelium-free isolated blood vessels
Details: concentration 10^−6 M; blood vessel rings contracted with noradrenalin 3×10^−7 M; 37° C.
Protocol: Activity of manganese (manganese gluconate, manganese chloride and manganese carbonate) in an ex vivo model of endothelium-free isolated blood vessels:
Blood vessel rings (or sections) were maintained in a 20 ml tank filled with survival fluid (Krebs Henseleit liquid) maintained at a temperature of 37° C. and oxygenated with a mixture of 95% oxygen and 5% CO2.
The variations in the tension of the blood vessel were then recorded with an initial preloading of several […].
The rings were contracted with noradrenalin at a concentration of 3×10^−7 M. On each preparation, the effect of the test products was evaluated at increasing and cumulative concentrations of from 3×10^−8 M to 10^−5 M.

| Substance | % of relaxation |
| --- | --- |
| manganese carbonate [MnCO3] | 100% |
| manganese chloride [MnCl2] | 100% |
| manganese gluconate | 100% |
